# Results from paper PMC5601486, “Identification of 4-phenylquinolin-2(1H)-one as a specific allosteric inhibitor of Akt” (Scientific Reports, 2017).
# Entries after “also recorded” stand apart in the source; their conditions may differ.
# Assays:
# activated Akt = assay: Substrate peptide phosphorylation by activated Akt (ELISA-based); format: biochemical; settings: 20 µM G7, ATP and substrate peptide
# SGK1 = assay: Western blot of SGK1 S422 phosphorylation; format: cell-based, Mouse; settings: all concentrations tested including 80 µM
# Description: (§1) Neuro 2A cells were seeded in 12-well plates in DMEM containing 5% FBS for 24 hr.
# (§2) After overnight serum starvation (in 0% FBS DMEM), cells were incubated for 30 min at 37 °C with G7 or LY294002 or Torin 1 (Sigma Aldrich) at various concentrations, or DMSO control. IGF-1 was added to each well at a final concentration of 100 ng/mL. After 30-min incubation cells were washed with cold PBS and lysed with 50 µL lysis buffer containing 1% Triton X-100 and protease/phosphatase inhibitors (Cell Signaling Technology) or RIPA buffer (Santa Cruz Biotech). Samples were electrophoresed in 4–12% Bis-Tris gels (Life Technologies) at 150 V using MOPS SDS running buffer. Proteins were transferred electrophoretically to a PVDF or nitrocellulose membrane. For detection of cleaved […]
# (§3) caspase 3 a Trans-Blot Turbo Transfer System (Bio-Rad, 25 V for 25 min) with PVDF membrane were used. […]
# (§4) anti- GAPDH (14C10) antibody (#2118) (all antibodies were from Cell Signaling Technology unless indicated, 1:1000 dilution was used) at 4°C overnight, washed three times with TBS-T, then incubated with peroxidase-conjugated secondary antibody (Sigma-Aldrich) for 1 hr at room temperature. […] Band intensity was quantitated using Kodak 1D imaging analysis software. […]
# PKA = assay: Western blot of PKA phosphorylation; format: cell-based, Mouse; settings: Neuro 2A cells
# Description: as §1, §2, §3, §4
# Akt = test system: T1, Akt; assay: In vitro phosphorylation of Akt S473 by MAPKAP kinase 2; format: biochemical; settings: inactive Akt, PE/PC/PS/PIP3 vesicles
# T1 construct: purchased Millipore 14-279
# DMPK2 = assay: KINOMEscan; settings: 50000 nM
# Description: KINOMEscan™ selectivity screen
# (§5) The assay was perfor med at DiscoveRx Corporation according the methods published previously5. Briefly, Kinase-tagged T7 phage strains were grown in parallel in an E. coli host derived from the BL21 strain. E. coli were grown to log-phase and infected with T7 phage from a frozen stock and incubated with shaking at 32°C until lysis (90-150 minutes). The kinases were produced in HEK-293 cells and subsequently tagged with DNA for qPCR detection. Streptavidin-coated magnetic beads were treated with biotinylated small molecule ligands to generate affinity resins for kinase
# (§6) inhibitor or DMSO control was performed in polypropylene 384-well plates for 1 hr at room temperature. After wash with PBS buffer containing 0.05% Tween 20, the beads were incubated in elution buffer (PBS containing 0.05 % Tween 20 and 0.5 μM non-biotinylated affinity ligand) for 30 minutes at room temperature. The kinase concentration in the eluates was measured by qPCR.
# PIK3CD = assay: KINOMEscan; settings: 50000 nM
# Description: KINOMEscan™ selectivity screen
# as §5, §6
# PIP5K2B = assay: KINOMEscan; settings: 50000 nM
# Description: KINOMEscan™ selectivity screen
# as §5, §6
# SRPK3 = assay: KINOMEscan; settings: 50000 nM
# Description: KINOMEscan™ selectivity screen
# as §5, §6
# TGFBR2 = assay: KINOMEscan; settings: 50000 nM
# Description: KINOMEscan™ selectivity screen
# as §5, §6
# YANK2 = assay: KINOMEscan; settings: 50000 nM
# Description: KINOMEscan™ selectivity screen
# (§7) Briefly, Kinase-tagged T7 phage strains were grown in parallel in an E. coli host derived from the BL21 strain. E. coli were grown to log-phase and infected with T7 phage from a frozen stock and incubated with shaking at 32°C until lysis (90-150 minutes). The kinases were produced in HEK-293 cells and subsequently tagged with DNA for qPCR detection. Streptavidin-coated magnetic beads were treated with biotinylated small molecule ligands to generate affinity resins for kinase
# as §6
# HIPK4 = assay: KINOMEscan; settings: 50000 nM
# Description: KINOMEscan™ selectivity screen
# as §5, §6
# DCAMKL2 = assay: KINOMEscan; settings: 50000 nM
# Description: KINOMEscan™ selectivity screen
# as §5, §6
# CDK4-cyclinD1 = assay: KINOMEscan; settings: 50000 nM
# Description: KINOMEscan™ selectivity screen
# as §5, §6
# EPHA5 = assay: KINOMEscan; settings: 50000 nM
# Description: KINOMEscan™ selectivity screen
# as §5, §6
# TBK1 = assay: KINOMEscan; settings: 50000 nM
# Description: KINOMEscan™ selectivity screen
# as §5, §6
# [1] = test system: ABL1(F317L)-nonphosphorylated; assay: KINOMEscan; settings: 50000 nM
# Description: KINOMEscan™ selectivity screen
# as §5, §6
# ERK1 = assay: KINOMEscan; settings: 50000 nM
# Description: KINOMEscan™ selectivity screen
# as §5, §6
# FYN = assay: KINOMEscan; settings: 50000 nM
# Description: KINOMEscan™ selectivity screen
# as §5, §6
# WNK4 = assay: KINOMEscan; settings: 50000 nM
# Description: as §7, §6
# [2] = test system: EGFR(L747-S752del, P753S); assay: KINOMEscan; settings: 50000 nM
# Description: as §7, §6
# WEE2 = assay: KINOMEscan; settings: 50000 nM
# Description: KINOMEscan™ selectivity screen
# (§8) The assay was perfor med at DiscoveRx Corporation according the methods published previously5. […] The kinases were produced in HEK-293 cells and subsequently tagged with DNA for qPCR detection. Streptavidin-coated magnetic beads were treated with biotinylated small molecule ligands to generate affinity resins for kinase
# as §6
# IKK-beta = assay: KINOMEscan; settings: 50000 nM
# Description: KINOMEscan™ selectivity screen
# as §5, §6
# PIK3CA(Q546K) = assay: KINOMEscan; settings: 50000 nM
# Description: KINOMEscan™ selectivity screen
# as §7, §6
# ABL1-nonphosphorylated = assay: KINOMEscan; settings: 50000 nM
# Description: KINOMEscan™ selectivity screen
# as §5, §6
# CLK4 = assay: KINOMEscan; settings: 50000 nM
# Description: KINOMEscan™ selectivity screen
# as §5, §6
# BLK = assay: KINOMEscan; settings: 50000 nM
# Description: KINOMEscan™ selectivity screen
# as §7, §6
# EGFR(G719C) = assay: KINOMEscan; settings: 50000 nM
# Description: KINOMEscan™ selectivity screen
# as §7, §6
# DAPK3 = assay: KINOMEscan; settings: 50000 nM
# Description: KINOMEscan™ selectivity screen
# as §7, §6
# RIPK5 = assay: KINOMEscan; settings: 50000 nM
# Description: KINOMEscan™ selectivity screen
# as §5, §6
# CDKL2 = assay: KINOMEscan; settings: 50000 nM
# Description: KINOMEscan™ selectivity screen
# as §7, §6
# VEGFR2 = assay: KINOMEscan; settings: 50000 nM
# Description: KINOMEscan™ selectivity screen
# as §5, §6
# AAK1 = assay: KINOMEscan; settings: 50000 nM
# Description: KINOMEscan™ selectivity screen
# as §5, §6
# TAK1 = assay: KINOMEscan; settings: 50000 nM
# Description: KINOMEscan™ selectivity screen
# as §7, §6
# RIOK3 = assay: KINOMEscan; settings: 50000 nM
# Description: KINOMEscan™ selectivity screen
# as §5, §6
# FGFR1 = assay: KINOMEscan; settings: 50000 nM
# Description: KINOMEscan™ selectivity screen
# as §5, §6
# TRKB = assay: KINOMEscan; settings: 50000 nM
# Description: KINOMEscan™ selectivity screen
# as §8, §6
# [3] = test system: RSK4(Kin.Dom.1-N-terminal); assay: KINOMEscan; settings: 50000 nM
# Description: KINOMEscan™ selectivity screen
# as §5, §6
# FLT3(D835Y) = assay: KINOMEscan; settings: 50000 nM
# Description: KINOMEscan™ selectivity screen
# as §5, §6
smiles,measurement,setting,value
"Oc1cc(-c2ccccc2)c2ccccc2n1 [G7, 4-phenylquinolin-2(1H)-one]",effect on phosphorylation capability of activated Akt,activated Akt,No effects; also recorded: only negligible change
same,S422 phosphorylation of SGK1,SGK1,did not inhibit
same,phosphorylation (activation status) of PKA,PKA,did not alter
same,in vitro phosphorylation of S473 by MAPKAP kinase 2,Akt,impaired
same,Percent Control,DMPK2,100%
same,Percent Control,PIK3CD,100%
same,Percent Control,PIP5K2B,100%
same,Percent Control,SRPK3,100%
same,Percent Control,TGFBR2,100%
same,Percent Control,YANK2,100%
same,Percent Control,HIPK4,98%
same,Percent Control,DCAMKL2,97%
same,Percent Control,CDK4-cyclinD1,95%
same,Percent Control,EPHA5,95%
same,Percent Control,TBK1,95%
same,Percent Control,[1],94%
same,Percent Control,ERK1,89%
same,Percent Control,FYN,89%
same,Percent Control,WNK4,88%
same,Percent Control,[2],84%
same,Percent Control,WEE2,84%
same,Percent Control,IKK-beta,83%
same,Percent Control,PIK3CA(Q546K),83%
same,Percent Control,ABL1-nonphosphorylated,81%
same,Percent Control,CLK4,80%
same,Percent Control,BLK,79%
same,Percent Control,EGFR(G719C),79%
same,Percent Control,DAPK3,74%
same,Percent Control,RIPK5,73%
same,Percent Control,CDKL2,69%
same,Percent Control,VEGFR2,67%
same,Percent Control,AAK1,62%
same,Percent Control,TAK1,61%
same,Percent Control,RIOK3,58%
same,Percent Control,FGFR1,56%
same,Percent Control,TRKB,56%
same,Percent Control,[3],34%
same,Percent Control,FLT3(D835Y),33%
